Measurements as given in article PMC11149917, “Translational and Therapeutic Evaluation of RAS-GTP Inhibition by RMC-6236 in RAS-Driven Cancers” (Cancer Discovery, 2024).
Where “and” joins values, the source holds several entries; their conditions need not be identical. Identical values can stand only once. Like-named read-outs stand apart in the source and are kept apart here.

Legend:
[1] = test system: DUSP6 mRNA in Capan-2 xenograft tumors; assay: In vivo PD by DUSP6 qPCR and PK/PD relationship; design: species or system mouse; details: Mus musculus; for inhibition at 25 mg/kg: single oral dose 25 mg/kg
Protocol: (§1) Tumor-bearing animals were randomized and assigned into groups (n = 1–10/group). The vehicle at 10 mL/kg or RMC-6236 at indicated doses was administered via oral gavage daily, and animals were treated for 28 days, or up to 90 days if PFS was being assessed. […] For single-dose PKPD study, mice were randomized and assigned into groups (n = 3/dose/time point). A single dose of RMC-6236 was administered orally at either 3, 10, or 25 mg/kg. Blood and tissues, including the tumor, brain, colon, ear skin, and muscle, were harvested at indicated time points. Whole blood was collected in K2EDTA Microtainer tubes, incubated for 5 minutes, and snap-frozen in liquid nitrogen. The tissue was either fixed in 10% formalin or snap-frozen in liquid nitrogen for further analysis.
(§2) RNA was extracted from at least 20 mg of tissue using an RNeasy Mini Kit (Qiagen, 74104) and a High-Throughput Tissue grinder following the manufacturer's protocol. Reverse transcription was carried out using High-Capacity cDNA Reverse Transcription Kit (ABI, 4368814) according to the manufacturer's protocol. The cDNA product was used for qPCR analysis using TaqMan Gene-Expression Master Mix (ABI, 4369016). TaqMan primer probes specific to DUSP6 (human—Hs00737962_m1, murine—Mm00518185_m1, FAM-MGB) and 18S (RNA18S1; human—Hs99999901_s1, murine—Mm03928990_g1, FAM-MGB, used as an internal control gene) were used to detect the levels from each sample in duplicates using a 10 µL final reaction volume in a 384-well clear optical reaction plate. For qPCR, Ct values of DUSP6 and 18S were obtained for analysis. DUSP6 Ct value was normalized to 18S, and then the mean relative mRNA expression levels of each group were normalized to the vehicle control group. Values were plotted as relative change in mRNA expression compared with vehicle. Means ± SEM were shown.
(§3) Concentrations of RMC-6236 in tumor or normal tissues and percentage of DUSP6 inhibition as compared with the vehicle control from individual animals were collected and analyzed post a single dose of RMC-6236 ranging from 0.3 to 100 mg/kg (Supplementary Table S6). A 3-parameter sigmoidal exposure–response model was fitted to the data in GraphPad Prism to derive EC50 and EC90 values.

[2] = test system: DUSP6 mRNA in NCI-H441 xenograft tumors; assay: In vivo PD by DUSP6 qPCR and PK/PD relationship; design: species or system mouse; details: for % inhibition of DUSP6 vs control: NCI-H441 xenograft tumor
Protocol: as §1, §2, §3

CCn1c(-c2cc(N3CCN(C)CC3)cnc2[C@H](C)OC)c2c3cc(ccc31)-c1csc(n1)C[C@H](NC(=O)[C@H]1C[C@@H]1C)C(=O)N1CCC[C@H](N1)C(=O)OCC(C)(C)C2 [RMC-6236] gave an inhibition at 10 mg/kg ([1]; Capan-2, single oral dose 10 mg/kg, 8 hours after dose, read-out: inhibition of tumor DUSP6 levels (relative to vehicle control)) greater than 95%, an inhibition at 25 mg/kg ([1]; Capan-2, 8 hours after dose, read-out: inhibition of tumor DUSP6 levels (relative to vehicle control)) greater than 95% and an inhibition at 25 mg/kg ([1]; Capan-2, up to 24 hours after dose, read-out: inhibition of tumor DUSP6 levels (relative to vehicle control)) greater than 90%. For the same molecule, the EC50 ([1]; Capan-2 xenograft tumors, read-out: EC50, inhibition of DUSP6 expression vs RMC-6236 concentration (PK/PD relationship)) was 90 nM, the EC90 ([1]; Capan-2 xenograft tumors, read-out: EC90, inhibition of DUSP6 expression vs RMC-6236 concentration (PK/PD relationship)) was 809 nM and the “DUSP6 mRNA Expression (%)” value ([2]; Model Development Dataset, 25mg/kg_study8, 1 h) was 30.3376%. For the same molecule, the “DUSP6 mRNA Expression (%)” value ([2]; Model Development Dataset, 25mg/kg_study8, 2 h) was 11.6899%, the “DUSP6 mRNA Expression (%)” value ([2]; Model Development Dataset, 25mg/kg_study8, 8 h) was 1.524% and the “DUSP6 mRNA Expression (%)” value ([2]; Model Development Dataset, 25mg/kg_study8, 24 h) was 8.817%. The “DUSP6 mRNA Expression (%)” value ([2]; Model Development Dataset, 25mg/kg_study8r (doses every 24 h, 0-[…]), 240 h) was 3.766%, the “DUSP6 mRNA Expression (%)” value ([2]; Model Development Dataset, 40mg/kg_study8, 1 h) was 65.2423% and the “DUSP6 mRNA Expression (%)” value ([2]; Model Development Dataset, 40mg/kg_study8, 2 h) was 13.6285%. For the same molecule, the “DUSP6 mRNA Expression (%)” value ([2]; Model Development Dataset, 40mg/kg_study8, 8 h) was 4.661%, the “DUSP6 mRNA Expression (%)” value ([2]; Model Development Dataset, 40mg/kg_study8, 24 h) was 3.474% and the “DUSP6 mRNA Expression (%)” value ([2]; Model Development Dataset, 40mg/kg_study8r (doses every 24 h, 0-[…]), 240 h) was 0.8569%. The “DUSP6 mRNA Expression (%)” value ([2]; Model Validation Dataset, 10mg/kg_study6, 1 h) was 45.187%, the “DUSP6 mRNA Expression (%)” value ([2]; Model Validation Dataset, 10mg/kg_study6, 8 h) was 5.053% and the “DUSP6 mRNA Expression (%)” value ([2]; Model Validation Dataset, 10mg/kg_study6, 24 h) was 13.225%. For the same molecule, the “DUSP6 mRNA Expression (%)” value ([2]; Model Validation Dataset, 10mg/kg_study6, 48 h) was 62.867%, the “DUSP6 mRNA Expression (%)” value ([2]; Model Validation Dataset, 25mg/kg_study6, 1 h) was 48.7936% and the “DUSP6 mRNA Expression (%)” value ([2]; Model Validation Dataset, 25mg/kg_study6, 8 h) was 5.7726%. The “DUSP6 mRNA Expression (%)” value ([2]; Model Validation Dataset, 25mg/kg_study6, 24 h) was 9.122%, the “DUSP6 mRNA Expression (%)” value ([2]; Model Validation Dataset, 25mg/kg_study6, 48 h) was 14.7114% and the “DUSP6 mRNA Expression (%)” value ([2]; Model Validation Dataset, 25mg/kg_study6, 72 h) was 12.5199%. The “DUSP6 mRNA Expression (%)” value ([2]; Model Validation Dataset, 50mg/kg_study6, 1 h) was 16.7798%, the “DUSP6 mRNA Expression (%)” value ([2]; Model Validation Dataset, 50mg/kg_study6, 8 h) was 5.52% and the “DUSP6 mRNA Expression (%)” value ([2]; Model Validation Dataset, 50mg/kg_study6, 24 h) was 5.873%. For the same molecule, the “DUSP6 mRNA Expression (%)” value ([2]; Model Validation Dataset, 50mg/kg_study6, 48 h) was 10.9912%, the “DUSP6 mRNA Expression (%)” value ([2]; Model Validation Dataset, 50mg/kg_study6, 72 h) was 10.0613% and the EC50 ([2]; Mus musculus, NCI-H441, read-out: EC50, inhibition of DUSP6 expression vs RMC-6236 concentration (PK/PD relationship)) was 117 nM. The EC90 ([2]; Mus musculus, NCI-H441, read-out: EC90, inhibition of DUSP6 expression vs RMC-6236 concentration (PK/PD relationship)) was 1120 nM, the “% inhibition of DUSP6 vs control” value ([2]; study NCI-H441#6, 10 mg/kg, 8h) was 94.3996% and 97.36% and 93.0812% and the “% inhibition of DUSP6 vs control” value ([2]; study NCI-H441#6, 10 mg/kg, 24h) was 92.8123% and 75.0577% and 92.455%. The “% inhibition of DUSP6 vs control” value ([2]; study NCI-H441#6, 25 mg/kg, 8h) was 92.2964% and 95.8141% and 94.5716%, the “% inhibition of DUSP6 vs control” value ([2]; study NCI-H441#6, 25 mg/kg, 24h) was 90.5813% and 91.1816% and 90.8706% and the “% inhibition of DUSP6 vs control” value ([2]; study NCI-H441#6, 25 mg/kg, 48h) was 88.2424% and 92.0524% and 75.571%. For the same molecule, the “% inhibition of DUSP6 vs control” value ([2]; study NCI-H441#6, 50 mg/kg, 8h) was 94.9176% and 94.1618% and 94.3607%, the “% inhibition of DUSP6 vs control” value ([2]; study NCI-H441#6, 50 mg/kg, 24h) was 95.6815% and 94.6463% and 92.0524% and the “% inhibition of DUSP6 vs control” value ([2]; study NCI-H441#6, 50 mg/kg, 48h) was 89.9053% and 88.838% and 88.2831%. For the same molecule, the “% inhibition of DUSP6 vs control” value ([2]; study NCI-H441#6, 100 mg/kg, 8h) was 96.2144% and 97.8257% and 94.7565%, the “% inhibition of DUSP6 vs control” value ([2]; study NCI-H441#6, 100 mg/kg, 24h) was 96.5645% and 97.2858% and 99.0371% and the “% inhibition of DUSP6 vs control” value ([2]; study NCI-H441#6, 100 mg/kg, 48h) was 97.3783% and 95.7557% and 95.9427%. The “% inhibition of DUSP6 vs control” value ([2]; study NCI-H441#8, 25 mg/kg, 2h) was 93.3108% and 86.9874% and 84.6322%, the “% inhibition of DUSP6 vs control” value ([2]; study NCI-H441#8, 25 mg/kg, 8h) was 99.2306% and 96.8685% and 99.3302% and the “% inhibition of DUSP6 vs control” value ([2]; study NCI-H441#8, 25 mg/kg, 24h) was 93.9294% and 85.711% and 93.9083%. The “% inhibition of DUSP6 vs control” value ([2]; study NCI-H441#8, 40 mg/kg, 2h) was 77.4222% and 82.1626% and 99.5296%, the “% inhibition of DUSP6 vs control” value ([2]; study NCI-H441#8, 40 mg/kg, 8h) was 94.9481% and 94.7152% and 96.3527% and the “% inhibition of DUSP6 vs control” value ([2]; study NCI-H441#8, 40 mg/kg, 24h) was 94.2767% and 98.3791% and 96.9223%. The “% inhibition of DUSP6 vs control” value ([2]; study NCI-H441#10, 0.3 mg/kg, 8h) was 46.2112% and 70.874% and 74.5563%, the “% inhibition of DUSP6 vs control” value ([2]; study NCI-H441#10, 0.3 mg/kg, 48h) was 38.4266% and 52.8484% and 73.0122% and the “% inhibition of DUSP6 vs control” value ([2]; study NCI-H441#10, 1 mg/kg, 48h) was 52.6847% and 48.936% and 65.7214%. For the same molecule, the “% inhibition of DUSP6 vs control” value ([2]; study NCI-H441#10, 10 mg/kg, 8h) was 85.6375% and 96.6614% and 94.5007%, the “% inhibition of DUSP6 vs control” value ([2]; study NCI-H441#10, 10 mg/kg, 24h) was 85.7861% and 76.2602% and 81.9462% and the “% inhibition of DUSP6 vs control” value ([2]; study NCI-H441#10, 10 mg/kg, 48h) was 44.699% and 49.9869% and 60.6243%. The “% inhibition of DUSP6 vs control” value ([2]; study NCI-H441#13, 0.3 mg/kg, 8h) was 54.8539% and 55.936% and 78.3465% and the “% inhibition of DUSP6 vs control” value ([2]; study NCI-H441#13, 1 mg/kg, 2h) was 47.4169% and 56.5427% and 69.4833%.
